Entries after “also recorded” stand apart in the source; their conditions may differ.
Assays:
[1] = test system: NF-κB; experiment: NF-κB activation by EMSA, Panc28 cells; assay type: cell-based, human; details: for effect on A23187-induced activation of NF-κB: Panc28
Procedure: (§1) To assess NF-κB activation, electrophoretic mobility shift assay (EMSA) was performed as described previously. Briefly, nuclear extracts prepared from cells (1×10^6/ml) were incubated with a ^32P end-labeled 45-mer double-stranded NF-κB oligonucleotide (15 μg of protein with 16 fmol of DNA) from the human immunodeficiency virus long terminal repeat, 5′-[…] […] CGCTG […] […]-3′ (boldface indicates NF-κB binding sites) (SEQ ID NO:17), for 30 minutes at 37° C., and the DNA-protein complex formed was separated from free oligonucleotide on 6.6% native polyacrylamide gels. A double-stranded mutated oligonucleotide, 5′-[…] […] CGCTG […] […]-3′ (SEQ ID NO:18), was used to examine the specificity of binding of NF-κB to the DNA. The specificity of binding was also examined using competition with the unlabeled and mutated oligonucleotides. For supershift assays, nuclear extracts were incubated with antibodies against either the p50 or the p65 subunit of NF-κB for 30 minutes at 37° C. before the complex was analyzed using EMSA.

[2] = test system: NF-κB; experiment: NF-κB-dependent SEAP reporter gene assay, MCF-7/WT cells; assay type: cell-based, human
Procedure: (§2) NF-κB dependent reporter gene transcription was analyzed using secretory alkaline phosphatase (SEAP) assay as described previously. Briefly, Panc28 and MCF-7 cells (5×10^5 cells/well in a six-well plate) were transiently transfected by the calcium phosphate method in a 1 ml medium containing 0.5 μg of NF-κB promoter DNA, linked to the heat-stable SEAP gene or with the control plasmid pCMV-FLAG1 DNA. Transfected cells were either left untreated or treated with 1 μM A23187 (Sigma-Aldrich), 1 mM BPA, or 1 nM tumor necrosis factor (TNF)-α (Genentech, South San Francisco, Calif.). Twenty-four hours after treatment, the conditioned medium was removed and assayed for SEAP activity according to the manufacturer's instructions (Clontech Laboratories, Mountain View, Calif.) using an automated microplate reader (PerkinElmer, Wellesley, Mass.). In some experiments cells were co-transfected with dominant-negative construct of IκBα along with NF-κB reporter gene.

[3] = test system: NF-κB; experiment: NF-κB activation by EMSA, BxPc3 cells; assay type: cell-based, human; details: 1 μM or 2 μM, 24 hours
Procedure: as §1

[4] = test system: NF-κB; experiment: NF-κB activation by EMSA, MCF-7 cells; assay type: cell-based, human; details: MCF-7 cells (lack TG2)
Procedure: as §1

[5] = test system: NF-κB; experiment: NF-κB-dependent SEAP reporter gene assay, Panc28 cells; assay type: cell-based, human
Procedure: as §2

[6] = test system: Panc-28 cells; experiment: Gemcitabine cytotoxicity, MTS assay, Panc-28; assay type: cell-based; details: Homo sapiens, 72 hours
Procedure: (§3) The number of viable cells remaining after the appropriate treatment was determined by measuring their ability to reduce 3-(4,5-dimethylthiazol-2-yl)-5-(3-carboxymethoxyphenyl)-2H-tetrazolium (MTS) into a soluble formazan in accordance with the manufacturer's instructions. Logarithmically growing cells were plated at 2×10^3 cells per well in 96-well plates and allowed to adhere overnight. […] Each experiment was repeated three times in triplicate. […] Under identical conditions, the cells were trypsinized, and the cell viability was determined with a trypan blue exclusion test to confirm the MTS results.

[7] = test system: Panc-28 tumors; experiment: Microvessel density (CD31) in Panc-28 tumors; assay type: in vivo, nude mice; details: CD31 staining
Source text: A rat anti-mouse CD31 monoclonal antibody was used to determine the microvessel density in xenografts. The CD31 stained slides were observed under a Leica DM4000B fluorescence microscope (Leica Microsystems Inc, Bannockburn, Ill.) equipped with SPOT-RTKE digital camera (Diagnostic instruments, Sterling Heights, Mich.) and the images were acquired and stored using SPOT advanced software (Diagnostic instruments, Sterling Heights, Mich.). The stored images were processed using NIH ImageJ software. The vessel density in each image was estimated by setting a minimum threshold of 4 pixel^2. Setting a minimum threshold enables to avoid the background non-specific staining and to eliminate the fluorescence signal from single endothelial cell. Results were expressed as the mean number of vessels±SE per high power field (HPF, 100× magnification). A total of 20 random HPFs were examined and counted in four different tumor samples from each treatment group.

[8] = test system: Panc-28 tumors; experiment: Ki-67 proliferation staining of Panc-28 tumors; set-up: species or system nude mice; details: mouse, in vivo
Source text: Ki-67 staining was used to evaluate the proliferation index of in vivo growing xenografts and expressed as the number of Ki-67^+ cells±standard error (SE) as determined by counting 10 random microscopic fields for three different tumor samples per treatment group.

[9] = test system: VEGF, pAkt (ser473); experiment: VEGF and pAkt expression in Panc-28 tumors; set-up: species or system nude mice; details: mouse, in vivo
Procedure: Pancreatic tumor tissue samples obtained from control and experimental mice were minced and incubated on ice for 30 min in 0.5 ml of ice-cold lysate buffer (20 mmol/L Tris-HCl, pH 7.4, containing 10% NP-40, 5 mol/L NaCl, 1 mol/L HEPES, 0.5 mol/L EDTA, 0.1 mol/L phenylmethylsulfonyl fluoride, 0.2 mol/L sodium orthovanadate, 1 mol/L NaF, 2 μg/ml aprotinin, and 2 μg/ml leupeptin). The minced tissue was homogenized using a Dounce homogenizer and centrifuged at 16,000×g at 4° C. for 10 min. Fifty micrograms of total protein from each sample was then fractionated using sodium dodecyl sulfate-polyacrylamide gel, electrotransferred onto nitrocellulose membranes, blotted with appropriate antibodies, and antigen antibody reaction detected using enhanced chemiluminescence (Amersham Pharmacia Biotech, Piscataway, N.J.). […] The protein bands obtained were quantified using the AlphaEase FC (Fluor Chem 8900) software program (Alpha Innotech, San Leandro, Calif.).
Tissue microarray slides constructed using 65 formalin-fixed patient tumor samples and 9 normal pancreatic tissue samples were used for this study. […] TG2 protein expression in these tumor samples and xenograft tumors from siRNA treated mice was evaluated immunohistochemically using the Vectastatin Elite ABC immunostaining kit (Vector Laboratories, Burlingame, Calif.) as described previously (12). […]

[10] = test system: BxPC-3 cells; experiment: Gemcitabine cytotoxicity, MTS assay, BxPC-3; assay type: cell-based; details: Homo sapiens
Procedure: as §3

[11] = test system: Panc-28 tumors; experiment: TUNNEL assay of apoptosis in Panc-28 tumors; assay type: in vivo, nude mice
Procedure: Terminal deoxynucleotidyl transferase mediated […] nick end labeling (TUNNEL) assay (Roche Molecular Biochemicals, Mannhein, Germany) of frozen sections to detect apoptotic cells was performed according to the manufacturer's protocol. The apoptotic fluorescence-positive cells were counted under a microscope and expressed as the percentage of total cells±SE. Ten fields in three tumors per treatment group were examined.

[12] = test system: MiaPaCa-2 cells; experiment: Gemcitabine cytotoxicity, MTS assay, MiaPaCa-2; assay type: cell-based; details: Homo sapiens, MIA PaCa-2, 72 hours
Procedure: as §3

[13] = test system: Panc-28 tumors; experiment: Orthotopic Panc-28 PDAC tumor model: tumor growth and metastasis; assay type: in vivo, nude (nu/nu) mice; details: vs control siRNA group, end of treatment
Source text: Panc-28 cells were stably transduced with the firefly luciferase gene as described previously (23). Luciferase-infected Panc-28 cells were harvested from subconfluent cultures after brief exposure to 0.25% trypsin and 0.2% EDTA. Trypsinization was stopped with the medium containing 10% fetal bovine serum. The cells were washed once in serum-free medium and resuspended in PBS. Single cell suspensions with >90% cell viability were used for implantation into the mice. Animals were anesthetized using intraperitoneal injection of 200 μl ketamine (100 mg/kg) and xylazine (5-10 mg/kg). […] The incision was closed in a single layer using sterile surgical Autoclips (Braintree Scientific, Braintree, Mass.), antibacterial mycotic cream was applied to the wound and the animal was placed on a heating pad to maintain body temperature and closely monitored until conscious.
Tumor growth in the mice after tumor-cell implantation was monitored weekly using a noninvasive bioimaging technique. […] Ten minutes after injection, each mouse was placed in the right lateral decubitus position, and bioluminescence was measured using a cryogenically cooled IVIS imaging system coupled with a data acquisition computer running LivingImage software (Xenogen Corp., Alameda, Calif.). […] The signal intensity was quantified as the sum of all detected photons within the region of interest per second per cm^2 per steridian. […]

For CNc1ccc2oc(C[C@H]3O[C@@]4(CC[C@H]3C)O[C@H]([C@H](C)C(=O)c3ccc[nH]3)[C@H](C)C[C@H]4C)nc2c1C(=O)O [A23187], the “basal TG2 activity and constitutive NF-κB activation” value ([1]; Panc28 cells) was “could be further induced”, the “A23187-induced SEAP activity” value [2] was “No basal or A23187-induced activity of SEAP” and the NF-κB activation [3] was “strong activation of NF-κB”. The NF-κB activation [4] was “failed to show an increase in NF-κB activation” and the “SEAP expression in response to A23187” value ([5]; Panc28, 1 µM for 24 hours) was “did not increase further”.
In the case of NCCCCCNC(=O)CCCC[C@@H]1SC[C@@H]2NC(=O)N[C@@H]21 [BPA, 5-(biotinamido) pentylamine], the inhibition at 1000 µM ([1]; Homo sapiens, Panc28, 1 mM for 24 hours, read-out: inhibition of constitutive activation of NF-κB) is reported as roughly 70%, the “effect on A23187-induced activation of NF-κB” value [1] is reported as “failed to further augment A23187-induced activation of NF-κB” and the “inhibition of TNF-α-induced SEAP expression” value ([2]; BPA 1 mM) is reported as “not by BPA”. The “inhibition of SEAP expression” value ([5]; Panc28, P<0.002) was “significantly inhibited”.
For CN(C)c1cccc2c(S(=O)(=O)NCCCCCN)cccc12 [MDC, monodansylcadaverine], the inhibition at 50 µM ([1]; Homo sapiens, Panc28, 50 μM, 24 hours) was roughly 60% and the “effect on A23187-induced activation of NF-κB” value [1] was “blocked A23187-induced activation”.
Nc1ccn([C@@H]2O[C@H](CO)[C@@H](O)C2(F)F)c(=O)n1 [gemcitabine] was tested, and the IC50 [6] was 1 µM, the “mean blood vessel / microvascular density” value [7] was “significant decrease in the mean blood vessel density” and the Ki-67 staining [8] was “high levels of Ki-67 staining”. For the same compound, the “pAkt (serine 473) in tumors” value [9] was “no significant changes in NF-κB activity or pAkt levels”, the IC50 ([10]; BxPC-3 cells (TG2-deficient), 72 hours) was 0.01 µM and the IC50 ([10]; BxPC-3 cells infected with TG2wt adenoviral construct, data not shown) was 0.1 µM. The “apoptotic cells in tumors” value [11] was “significant increases in the numbers of apoptotic cells”, the IC50 [12] was 0.1 µM and the metastasis score [13] was “completely ineffective in inhibiting metastasis; also recorded: no decreases in the metastasis score”.
TNF-α gave an SEAP reporter expression ([2]; TNF 1 nM, fold over non-transfected control) of 14 fold.

— US8299040B2, “Methods for treating cancer targeting transglutaminase” (Board of Regents, The University of Texas System, priority 2006, dated 2012)
